Measurements: ChEMBL document CHEMBL1145723, “Metabolic cleavage of frangufoline in rodents: in vitro and in vivo study” (J Nat Prod, 1997)

Experiments:
Serum [1] = assay: Metabolic stability in Sprague-Dawley rat serum assessed as formation of (S)-(N,N-dimethylphenylalanyl)-(2S,3S)-3[(p-formylphenoxyl)leucyl]-(S)-leucine) after 30 mins by HPLC; type: ADME, cell-free; conditions: 0.5 h
Serum [2] = assay: Metabolic stability in Sprague-Dawley rat serum up to 3 hrs; type: ADME, cell-free
Serum [3] = assay: Metabolic stability in Sprague-Dawley rat serum assessed as formation of (S)-(N,N-dimethylphenylalanyl)-(2S,3S)-3[(p-formylphenoxyl)leucyl]-(S)-leucine) at 50 mg/kg, po after 30 mins by HPLC; type: ADME, organism-based; set-up: dose 50 mg/kg, route oral; conditions: in vivo, 0.5 h
Serum [4] = assay: Metabolic stability in Sprague-Dawley rat serum assessed as formation of (S)-(N,N-dimethylphenylalanyl)-(2S,3S)-3[(p-formylphenoxyl)leucyl]-(S)-leucine) after 5 mins by HPLC; type: ADME, cell-free
Serum [5] = assay: Metabolic stability in Sprague-Dawley rat serum assessed as initial rate of compound cleavage at 0.10 mM after 10 mins by HPLC in presence of 2 mM eserine; type: ADME, cell-free; conditions: 100 µM
Serum [6] = assay: Metabolic stability in Sprague-Dawley rat serum assessed as initial rate of compound cleavage at 0.10 mM after 10 mins by HPLC in presence of 2 mM EDTA; type: ADME, cell-free; conditions: 100 µM
Serum [7] = assay: Metabolic stability in human serum assessed as formation of (S)-(N,N-dimethylphenylalanyl)-(2S,3S)-3[(p-formylphenoxyl)leucyl]-(S)-leucine) after 1 hr by HPLC; type: ADME, cell-free
[8] = Metabolic stability in Sprague-Dawley rat gastric juice assessed as formation of (S)-(N,N-dimethylphenylalanyl)-(2S,3S)-3[(p-formylphenoxyl)leucyl]-(S)-leucine) after 30 mins by HPLC; type: ADME, tissue-based; conditions: 0.5 h
[9] = Metabolic stability in Sprague-Dawley rat intestinal fluid assessed as formation of (S)-(N,N-dimethylphenylalanyl)-(2S,3S)-3[(p-formylphenoxyl)leucyl]-(S)-leucine) after 30 mins by HPLC; type: ADME; conditions: simulated gi fluid, 0.5 h
Serum [10] = assay: Metabolic stability in bovine serum assessed as formation of (S)-(N,N-dimethylphenylalanyl)-(2S,3S)-3[(p-formylphenoxyl)leucyl]-(S)-leucine) after 1 hr by HPLC; type: ADME, cell-free, Bos taurus; conditions: cattle
Serum [11] = assay: Metabolic stability in Sprague-Dawley rat serum assessed as initial rate of compound cleavage at 0.10 mM after 10 mins by HPLC in presence of 2 mM p-chloromercuribenzoic acid; type: ADME, cell-free; conditions: 100 µM
Serum [12] = assay: Metabolic stability in Sprague-Dawley rat serum assessed as initial rate of compound cleavage at 0.10 mM after 10 mins by HPLC in presence of 2 mM bis-(p-nitrophenyl) phosphate; type: ADME, cell-free; conditions: 100 µM
Serum [13] = assay: Metabolic stability in Sprague-Dawley rat serum assessed as formation of (S)-(N,N-dimethylphenylalanyl)-(2S,3S)-3[(p-formylphenoxyl)leucyl]-(S)-leucine) at 25 mg/kg, po after 10 mins by HPLC; type: ADME, organism-based; set-up: dose 25 mg/kg, route oral; conditions: in vivo
Serum [14] = assay: Metabolic stability in Sprague-Dawley rat serum assessed as initial rate of compound cleavage at 0.10 mM after 10 mins by HPLC in presence of 10 uM eserine; type: ADME, cell-free; conditions: 100 µM
Serum [15] = assay: Metabolic stability in Sprague-Dawley rat serum assessed as initial rate of compound cleavage at 0.10 mM after 10 mins by HPLC in presence of 2 mM (phenylmethyl)sulfonyl fluoride; type: ADME, cell-free; conditions: 100 µM
Serum [16] = assay: Metabolic stability in Sprague-Dawley rat serum assessed as initial rate of compound cleavage at 0.10 mM after 10 mins by HPLC; type: ADME, cell-free; conditions: 100 µM
Serum [17] = assay: Metabolic stability in mouse serum assessed as formation of (S)-(N,N-dimethylphenylalanyl)-(2S,3S)-3[(p-formylphenoxyl)leucyl]-(S)-leucine) after 1 hr by HPLC; type: ADME, cell-free

Q: For `CC(C)C[C@H]1NC(=O)[C@@H](NC(=O)[C@H](Cc2ccccc2)N(C)C)[C@H](C(C)C)Oc2ccc(cc2)/C=C\NC1=O` [SANJOININE AH1], which Activity (Serum [1]) is on record?
A: Its Activity is “Unstable”.

Q: With `CC(C)C[C@@H]1NC(=O)[C@@H](NC(=O)[C@H](Cc2ccccc2)N(C)C)[C@H](C(C)C)Oc2ccc(cc2)/C=C\NC1=O` [FRANGUFOLINE] as the molecule, how does the Stability (Serum [2]) read?
A: Its Stability is “Stable”.

Q: What about the Stability (Serum [3]) of the same molecule?
A: The Stability was “Unstable”.

Q: And the Stability (Serum [4])?
A: The Stability was “Unstable”.

Q: What about the Stability (Serum [5]) of the same molecule?
A: Its Stability is 0.352 pmol/min/mg.

Q: What about the Stability (Serum [6]) of the same molecule?
A: Its Stability is 0.376 pmol/min/mg.

Q: And the Stability (Serum [7])?
A: Its Stability is “Stable”.

Q: And the Stability [8]?
A: The Stability was “Stable”.

Q: And the Stability [9]?
A: The Stability was “Stable”.

Q: What about the Stability (Serum [10]) of the same molecule?
A: Its Stability is “Stable”.

Q: What about the Stability (Serum [11]) of the same molecule?
A: The Stability was 1.34 pmol/min/mg.

Q: What about the Stability (Serum [12]) of the same molecule?
A: Its Stability is 0.116 pmol/min/mg.

Q: What about the Stability (Serum [1]) of the same molecule?
A: The Stability was “Unstable”.

Q: What about the Stability (Serum [13]) of the same molecule?
A: The Stability was “Unstable”.

Q: What about the Stability (Serum [14]) of the same molecule?
A: The Stability was 1.24 pmol/min/mg.

Q: And the Stability (Serum [15])?
A: Its Stability is 1.3 pmol/min/mg.

Q: And the Stability (Serum [16])?
A: The Stability was 1.44 pmol/min/mg.

Q: What about the Stability (Serum [17]) of the same molecule?
A: Its Stability is “Unstable”.

Q: With `CC(C)C[C@@H]1NC(=O)[C@@H](NC(=O)[C@H](Cc2ccccc2)N(C)C)[C@H](C(C)C)Oc2ccc(cc2)[C@@H](O)CNC1=O` [SANJOININE G1] as the molecule, how does the Activity (Serum [1]) read?
A: Its Activity is “Stable”.

Q: With `CO[C@H]1CNC(=O)[C@H](CC(C)C)NC(=O)[C@@H](NC(=O)[C@H](Cc2ccccc2)N(C)C)[C@H](C(C)C)Oc2ccc1cc2` [SANJOININE D] as the molecule, how does the Activity (Serum [1]) read?
A: The Activity was “Stable”.

Q: Which Activity (Serum [1]) does the source give for `CC(C)C[C@@H]1NC(=O)[C@@H](NC(=O)[C@H](Cc2ccccc2)N(C)C)[C@H](C(C)C)Oc2ccc(cc2)CCNC1=O` [DIHYDROSANJOININE A] here?
A: Its Activity is “Stable”.
